Reference: patent US20130197088A1, “Compositions and Methods for Combinations of Oligoamines with 2-Difluoromethylornithine (DFMO)” (priority 2010, published 2013)
“Also recorded” adds a separate entry of the source.

Columns and labels:
[1] = biological target: T1, ODC (Homo sapiens, UniProt P11926); conditions: concentrations from 0.6 μM to 80 μM; cited from earlier work
T1 sequence (P11926 1-461): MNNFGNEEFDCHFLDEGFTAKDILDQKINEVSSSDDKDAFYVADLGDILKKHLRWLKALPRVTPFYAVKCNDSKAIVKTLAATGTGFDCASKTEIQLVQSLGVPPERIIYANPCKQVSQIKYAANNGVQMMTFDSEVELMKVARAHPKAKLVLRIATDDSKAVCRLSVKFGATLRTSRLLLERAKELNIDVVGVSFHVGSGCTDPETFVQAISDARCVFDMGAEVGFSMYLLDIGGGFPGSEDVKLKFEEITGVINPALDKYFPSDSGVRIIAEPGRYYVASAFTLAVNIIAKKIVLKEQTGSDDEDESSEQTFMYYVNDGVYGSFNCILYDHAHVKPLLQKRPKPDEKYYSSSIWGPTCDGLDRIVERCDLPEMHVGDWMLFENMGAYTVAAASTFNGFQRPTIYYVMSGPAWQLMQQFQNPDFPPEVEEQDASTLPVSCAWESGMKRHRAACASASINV

[2] = system: HCT116 cells; experiment: Intracellular polyamine pools by high pressure liquid chromatography after DFMO / PG-11144 treatment; assay type: cell-based, human
Experimental: DFMO (2- or α-difluoromethylornithine) can be obtained from Merrell Dow Pharmaceutical Inc. (Cincinnati, Ohio). Polyamine analogues are provided by Progen Pharmaceuticals Ltd. (Queensland, Australia). Stock solutions of each compound are diluted with medium to the desired concentrations for specific experiments. HCT116 colorectal carcinoma cells are maintained in McCoy's 5A medium supplemented with 9% FBS (Atlanta Biologicals, Lawrenceville, Ga.) and 1% penicillin/streptomycin (Mediatech, Manassas, Va.), and grown at 37° C. in 5% CO2 atmosphere. For experiments, HCT116 cells are first treated for 24 hours with 5 mM DFMO followed by another 24 hours treatment of replenished 5 mM DFMO and polyamine analogues in the indicated doses alone or simultaneously. Intracellular polyamine concentrations are determined by high pressure liquid chromatography.
A mixture of both D-enantiomer of DFMO and L-enantiomer of DFMO is used to generate data in Table 1.

[3] = system: SFRP2 in HCT116 cells; experiment: Re-expression of aberrantly silenced SFRP2, qPCR; assay type: cell-based, human
Experimental: HCT116 cells are first treated for 24 hour with 5 mM DFMO followed by another 24 hour treatment of replenished 5 mM DFMO and oligoamines (PG-11144 and PG-11150 for panel A, PG-11157, PG 11158 and PG-11159 for panel B) alone or simultaneously. RNA is extracted using TRIzol reagents and first-strand cDNA is synthesized using M-MLV reverse transcriptase with an oligo(dT) primer (Invitrogen). qPCR for SFRP2 is performed in a MyiQ single color real-time PCR machine with GAPDH as an internal control. The SFRP2 primers used for qPCR are: sense, 5′ AAGCCTGCAAAAATAAAAATGATG (SEQ ID NO: 1); antisense, 5′ TGTAAATGGTCTTGCTCTTGGTCT (SEQ ID NO: 2) (annealing at 53° C.). The quantified results are the mean of triplicate treatments. The transcript level for control samples was set to a value of 1. S.D. is indicated by the error bars.
HCT116 cells are first treated for 24 hours with 5 mM DFMO followed by another 24 hours treatment of replenished 5 mM DFMO and PG-11144 in the indicated doses alone or simultaneously. RNA isolation and qPCR are performed. The quantified results are the means of triplicate treatments with S.D. as indicated. The transcript level for control samples is set to a value of 1.
RNA Isolation and qPCR: RNA is extracted using TRIzol reagents (Invitrogen, Carlsbad, Calif.). First-strand cDNA is synthesized using M-MLV reverse transcriptase with an oligo(dT) primer (Invitrogen). qPCR is performed in a MyiQ single color real-time PCR machine (Bio-Rad, Hercules, Calif.) with GAPDH as an internal control. The SFRP2 primers used are: sense, 5′ AAGCCTGCAAAAATAAAAATGATG (SEQ ID NO: 1); antisense, 5′ TGTAAATGGTCTTGCTCTTGGTCT (SEQ ID NO: 2) (annealing at 53° C.).

[4] = system: H3K4me2 at the promoter of SFRP2 in HCT116 cells; experiment: ChIP analysis of H3K4me2 at the SFRP2 promoter; assay type: cell-based, human; conditions: 2.5 μM PG-11144 alone
Experimental: HCT116 cells are first treated for 24 hours with 5 mM DFMO followed by another 24 hours treatment of replenished 5 mM DFMO and 2.5 μM PG-11144 alone or simultaneously. Chromatin immunoprecipitation (CHIP) analysis is performed using EZ-chip kit (Millipore). In brief, cells are exposed to 1% formaldehyde to cross-link proteins, and two million cells are used for each CHIP assay. Antibodies against H3K4me2, and for control, H3 are used as indicated for immunoprecipitation of protein-DNA complexes. Quantitative ChIP is performed using qPCR on the MyiQ single color real-time PCR machine. The PCR primer sets used for amplification of precipitated SFRP2 promoter fragments are as follows: sense, 5′ CTCCCTCCCAGCCTGCCCATCTT (SEQ ID NO: 3); antisense, 5′ ACTGCCCACCATTTCCCCGTTTTG (SEQ ID NO: 4) (annealing at 61° C.). The relative enrichment of H3K4me2 for control samples is set to a value of 1.
Chromatin Immunoprecipitation (ChIP): CHIP analysis is performed using EZ-chip kit (Millipore) according to the manufacturer's instruction. In brief, cells are exposed to 1% formaldehyde to cross-link proteins, and two million cells are used for each CHIP assay. Antibody against H3 can be obtained from Abeam (Cambridge, Mass.) and antibody against H3K4me2 can be obtained from Millipore. Quantitative ChIP is performed using qPCR on the MyiQ single color real-time PCR machine. […]

[5] = system: HCT116 human colon tumors; experiment: Established tumors in nude mouse model; assay type: in vivo; conditions: PG-11144 alone, nude mice
[6] = biological target: T1, ODC; experiment: Inhibition of ODC activity by DFMO enantiomers; assay type: biochemical
Experimental: The use of D-DFMO or enriched D-isomer mixtures can overcome many of the problems associated with the use of racemic (50/50) D,L-DFMO. D-DFMO or enriched D-DFMO isomer mixtures may be administered at a dosage higher than a racemic mixture, due to lower anticipated toxicity associated with the D enantiomer. In three separate studies using concentrations from 0.6 μM to 80 μM D-, L-, and D,L-DFMO, the effective concentration level of each which inhibits 50% of the ODC activity (Ki) can be determined. Both enantiomers, as well as the racemic mixture, were inhibitory.

[7] = guinea pigs; cited from earlier work
[8] = system: six human tumors (three mammary carcinomas, a malignant melanoma, a bladder carcinoma, an endocervical carcinoma); conditions: after DFMO treatment; cited from earlier work
[9] = system: colon adenomas and carcinomas; conditions: animal models of colon carcinogenesis; cited from earlier work
[10] = system: Egr1 and Oct4 genes in P19 embryonal carcinoma cells; conditions: cited from earlier work

NCCCC(N)(C(=O)O)C(F)F (racemic) [D,L-DFMO]
Inhibition of ODC activity [1]: inhibitory

CCNCCCCNCCCCNCCCCNCCCCNCC=CCNCCCCNCCCCNCCCCNCCCCNCC (stereo in doubt) [PG-11144]
Polyamines: Putresine ([2]; PG-11144 0.5 μM, 24 h): 4.7 nmol/mg Protein
Polyamines: Spermidine ([2]; PG-11144 0.5 μM, 24 h): 9.1 nmol/mg Protein
Polyamines: Spermine ([2]; PG-11144 0.5 μM, 24 h): 11.2 nmol/mg Protein
Polyamines: Putresine ([2]; PG-11144 1 μM, 24 h): 4.7 nmol/mg Protein
Polyamines: Spermidine ([2]; PG-11144 1 μM, 24 h): 8.4 nmol/mg Protein
Polyamines: Spermine ([2]; PG-11144 1 μM, 24 h): 10.1 nmol/mg Protein
Polyamines: Putresine ([2]; PG-11144 2.5 μM, 24 h): 3.8 nmol/mg Protein
Polyamines: Spermidine ([2]; PG-11144 2.5 μM, 24 h): 5.6 nmol/mg Protein
Polyamines: Spermine ([2]; PG-11144 2.5 μM, 24 h): 6.2 nmol/mg Protein
Polyamines: Putresine ([2]; PG-11144 5 μM, 24 h): 0.0 nmol/mg Protein
Polyamines: Spermidine ([2]; PG-11144 5 μM, 24 h): 4.2 nmol/mg Protein
Polyamines: Spermine ([2]; PG-11144 5 μM, 24 h): 4.9 nmol/mg Protein
Polyamines: Putresine ([2]; PG-11144 10 μM, 24 h): 0.0 nmol/mg Protein
Polyamines: Spermidine ([2]; PG-11144 10 μM, 24 h): 4.1 nmol/mg Protein
Polyamines: Spermine ([2]; PG-11144 10 μM, 24 h): 6.4 nmol/mg Protein
SFRP2 expression ([3]; 2.5 μM PG-11144 alone): does not lead to increased SFRP2 expression
SFRP2 re-expression, synergy with DFMO (dose response) ([3]; 5 μM PG-11144 with 5 mM DFMO): greatest synergy with DFMO
SFRP2 expression (dose response) ([3]; PG-11144 concentrations higher than 5 μM with 5 mM DFMO): less SFRP2 expression
Promoter H3K4me2 levels (SFRP2 promoter, ChIP) [4]: does not lead to
Antitumor activity on established tumors [5]: effective in treating established tumors; also recorded: effective in shrinking established HCT116 human colon tumors

NCCC[C@@](N)(C(=O)O)C(F)F [D-DFMO]
Ki of D-DFMO relative to the L-form [6]: four fold lower
Ki of D-DFMO relative to the mixture [6]: 3 fold
Inhibition of ODC activity [1]: inhibitory
Effect on auditory function (compound action potential, cochlear microphonic, cochlear potentials) [7]: no significant effects

NCCC[C@](N)(C(=O)O)C(F)F [DFMO, 2-difluoromethylornithine]
Polyamines: Putresine ([2]; DFMO 5 mM alone): 0.0 nmol/mg Protein
Polyamines: Spermidine ([2]; DFMO 5 mM alone): 0.0 nmol/mg Protein
Polyamines: Spermine ([2]; DFMO 5 mM alone): 13.9 nmol/mg Protein
Growth of human tumors compared to control mice [8]: significantly decreased
Number and size of colon adenomas and carcinomas [9]: reduces the number and size of colon adenomas and carcinomas

NCCC[C@](N)(C(=O)O)C(F)F [L-DFMO]
Inhibition of ODC activity [1]: inhibitory
Effect on auditory function (compound action potential, cochlear microphonic, cochlear potentials) [7]: significant disruption of normal cochlear potentials

N[C@@H]1C[C@H]1c1ccccc1 [tranylcypromine, (1R,2S)-2-phenylcyclopropan-1-amine]
Effect on Egr1 and Oct4 gene transcription [10]: transcriptional de-repression
